Results as given in patent US8859235B2, “Methods in cell cultures, and related inventions, employing certain additives” (priority 2009, dated 2014).

What was measured:
E. coli JM109 = assay: Growth and GFP expression in high cell density fedbatch cultivation of E. coli JM109 in mineral medium; assay type: cell-based, Escherichia coli; conditions: for Optical density Value / GFP expression (RFU/OD600) Value: additive 5 mM
Experimental: (§1) The measurement of GFP expression by whole cell fluorescence measurements follows the procedure of Scholz et al. (Eur. J. Biochem., 2000,267, 1565-1570). Frozen cell pellets are thawed, resuspended in 1 mL PBS [NaCl (8 g/L), KCl (0.2), of Na2HPO4 (1.44), KH2PO4 (0.24), adjusted to pH 7.4] and subsequently diluted to an optical density of 0.1. GFP fluorescence of whole cells is measured in a Eclipse Fluorometer (Varian) with an excitation wavelength of 400 nm and an emission wavelength of 512 nm. Specific relative fluorescence [RFU/OD600] is calculated by dividing the relative fluorescence emmision units by the optical density of the suspension at 600 nm.
A first preculture of E. coli JM109 harboring the plasmid pBAD-GFPuv is initiated from glycerol stocks stored at −80° C. in 3 mL of LB medium containing 0.01% (v/v) Antifoam A (Fluka). After growth for 10-12 h it is used to seed 2×100 mL of mineral medium (as described in Example 1) containing 0.01% Antifoam A (silicone fluid containing a suspension of finely powdered silica to enhance its defoaming efficiency; Dow Corning Corporation, Midland, Mich., USA), in 1 L baffled shake flasks. After 10-12 h this culture is centrifuged resuspended in 50 mL mineral medium and is used to inoculate the main culture.
(§2) Cultivation is performed in BioFlow110 bioreactors (Total volume 2.2 L; New Brunswick Scientific, Nürtingen, Germany) filled with 1 L of mineral medium plus 0.01% (v/v) Antifoam A for the batch phase. Reactors are equipped with pH, pO2 and foam probes, mass flow controllers to control gas flow and ratio of air and pure oxygen and pumps for automated dosage of base (14% [v/v] aqueous NH3), antifoam (25% [v/v] Antifoam A) and nutrient feed solution. The agitation is set to 500 rpm and air is supplied at a gas flow rate of 2 L/min. The fedbatch culture is incoculated to an OD600 of 0.25-0.5 and allowed to grow unlimited with a specific growth rate of ˜0.5 h^−1. Growth is monitored by measuring OD600. When the disolved oxygen concentration decreases to 30%, automated adjustment of the air:oxygen ratio in the gas mix is started to control dO2 to 30% using a PID loop. When the gas mix consisted of 100% oxygen a further increase in oxygen transfer is achieved through increasing the agitation rate up to a maximum level of 1200 rpm. When glycerol in the batch medium is completely consumed, as indicated by a distinct drop of pure oxygen in the gas mix, feeding solutions (first containing 70 g/L glycerol and later as cell density increased 200 g/L glycerol in mineral medium) are pumped into the reactor by a predefined exponential fed scheme. The feeding rate is calculated to allow the cells to grow at a growth rate of approximately 0.15 h^−1. During the feeding phase dO2 is also kept at 30%. 3-6 h after starting the feeding protein expression is induced by the addition of 0.2 (w/v) L-arabinose. Samples are taken every hour for OD600 reading and to obtain cell pellets which are stored at −20° C. for further analysis. Analysis of in vivo GFP fluorescence is performed by the method described in Example 1.

E. coli BL21 = assay: Time course of growth and GFP expression in E. coli BL21 in high cell density fed-batch cultivation in mineral medium; assay type: cell-based, Escherichia coli; conditions: for RFU/OD / OD: additive 5 mM; for OD Factor / RFU/OD Factor: additive vs control
Experimental: as §1
E. coli BL21 [Novagen, Madison, USA; Genotype: E ompT hsdSB (rB^− mB^−) gal dcm (DE3)] harboring the plasmid pET28a-GFPuv was constructed as detailed in Example 2. A first preculture is initiated from glycerol stocks stored at −80° C. in 3 mL of LB medium containing 0.01% (v/v) Antifoam A (Fluke). After growth for 10-12 h it is used to seed 2×100 mL of mineral medium (as described in Example 1) containing 0.01% Antifoam A (silicone fluid containing a suspension of finely powdered silica to enhance its defoaming efficiency; Dow Corning Corporation, Midland, Mich., USA), in 1 L baffled shake flasks. After 10-12 h this culture is centrifuged, resuspended in 50 mL mineral medium and is used to inoculate the main culture.
as §2, with “inoculated” for “incoculated”, “dissolved” for “disolved”

[1] = Experiment 1, process time 26.75 h, relative to control = 1
[2] = cultivation time 16.5 h, 2.5 h after induction
[3] = cultivation time 20.8 h, 6.0 h after induction
[4] = cultivation time 32.5 h, 18 h after induction

Q: With `CC1(C)CC(O)CC(C)(C)N1[O]` [4-Hydroxy-2,2,6,6-tetramethylpiperidin-1-oxyl] as the molecule, how does the “Optical density Value” (E. coli JM109; Experiment 1, process time 26.75 h, control 9.86) read?
A: The value was 11.86.

Q: What about the “GFP expression (RFU/OD600) Value” (E. coli JM109; Experiment 1, process time 26.75 h, control 211) of the same molecule?
A: Its value is 535 RFU/OD600.

Q: And the “GFP expression Factor” value (E. coli JM109; [1])?
A: Its value is 2.53.

Q: What about the “Optical density Factor” value (E. coli JM109; [1]) of the same molecule?
A: Its value is 1.20.

Q: And the “GFP expression (RFU/OD600) Value” (E. coli JM109; Experiment 2, process time 18 h, control 0)?
A: The value was 190 RFU/OD600.

Q: And the “Optical density Value” (E. coli JM109; Experiment 2, process time 18 h, control 6.67)?
A: The value was 11.42.

Q: What about the “Optical density Factor” value (E. coli JM109; Experiment 2, process time 18 h, relative to control = 1) of the same molecule?
A: Its value is 1.7.

Q: And the RFU/OD (E. coli BL21; cultivation time 16.5 h, 2.5 h after induction, control 9.1)?
A: The RFU/OD was 107.9 RFU/OD.

Q: What about the OD (E. coli BL21; cultivation time 16.5 h, 2.5 h after induction, control 30.11) of the same molecule?
A: The OD was 43.57 OD.

Q: What about the “OD Factor” value (E. coli BL21; [2]) of the same molecule?
A: Its value is 1.45.

Q: And the “RFU/OD Factor” value (E. coli BL21; [2])?
A: The value was 11.86.

Q: What about the OD (E. coli BL21; cultivation time 20.8 h, 6.0 h after induction, control 48.46) of the same molecule?
A: The OD was 68.52 OD.

Q: And the RFU/OD (E. coli BL21; cultivation time 20.8 h, 6.0 h after induction, control 264.7)?
A: Its RFU/OD is 678.8 RFU/OD.

Q: What about the “OD Factor” value (E. coli BL21; [3]) of the same molecule?
A: Its value is 1.41.

Q: What about the “RFU/OD Factor” value (E. coli BL21; [3]) of the same molecule?
A: Its value is 2.56.

Q: What about the OD (E. coli BL21; cultivation time 32.5 h, 18 h after induction, control 83.39) of the same molecule?
A: The OD was 94.75 OD.

Q: And the RFU/OD (E. coli BL21; cultivation time 32.5 h, 18 h after induction, control 486.5)?
A: The RFU/OD was 873 RFU/OD.

Q: What about the “OD Factor” value (E. coli BL21; [4]) of the same molecule?
A: Its value is 1.14.

Q: What about the “RFU/OD Factor” value (E. coli BL21; [4]) of the same molecule?
A: Its value is 1.79.
